Measured values from patent US12540148B2, “Lipophosphonoxins, their preparation and use” (USTAV ORGANICKE CHEMIE A BIOCHEMIE AV CR, V. V. I., priority 2019, dated 2026).
Values after ≈ are worked out from the molar mass of the structure shown. Where a name gives a salt, the structure may show the parent alone. Read-outs that look alike come from different tables or passages of the source.

How the values were obtained:
Assay in all cases: MIC, microdilution method
Type in all cases: cell-based
[1] = test system: Candida albicans ATCC 90028 = CCM 8161
Escherichia coli CE5556 = test system: Escherichia coli CE5556
Procedure: (§1) Disposable microtiter plates are used for testing. Samples are dissolved in infusion medium from brain and heart (BHI, HiMedia Laboraties Pvt. Ltd., Czech Republic) and Mueller-Hinton broth (HiMedia Laboraties, see above) to a final concentration ranging from 200 μg/ml to 1.5625 μg/ml. Plates are inoculated with a standard amount of test bacteria—the density of the inoculum in the well corresponds to 10^5-6 CFU/ml (colony forming units/ml, i.e. the number of viable bacterial cells/ml). MIC values are read after 24/48 hours of incubation at 37° C. as the minimum inhibitory concentration of the test substance at which bacterial growth is inhibited. The minimum bactericidal concentration (MBC) is characterized as the minimum concentration of the sample required to achieve irreversible inhibition, i.e. to kill the bacteria after a defined incubation period. MBC is determined by the inoculation method. Using an applicator, 10 μl from the well of a microtiter plate with a defined concentration of the test substance is taken to inoculate the surface of blood agar (Trios, Czech Republic). MBC is determined as the lowest concentration that inhibits the visible growth of the bacterium used on agar.

[2] = test system: Staphylococcus epidermidis CCM 7221
Procedure: as §1

Pseudomonas aeruginosa R = test system: Pseudomonas aeruginosa R
Procedure: as §1

[3] = test system: Pseudomonas aeruginosa ATCC 27853 = CCM 3955
Procedure: as §1

[4] = test system: Staphylococcus aureus ATCC 29213 = CCM 4223
Procedure: as §1

[5] = test system: Enterococcus faecium 419/ANA
Procedure: as §1

[6] = test system: Escherichia coli ATCC 25922 = CCM 3954
Procedure: as §1

[7] = test system: Staphylococcus aureus 4591
Procedure: as §1

[8] = test system: Enterococcus faecalis ATCC 29212 = CCM 4224
Procedure: as §1

Enterobacter kobei 3683 = test system: Enterobacter kobei 3683
Procedure: as §1

[9] = Staphylococcus epidermidis, CCM7221
[10] = Escherichia coli, 24/48 hours at 37° C.
[11] = Candida albicans, 24/48 hours at 37° C., read-out: MIC
[12] = Escherichia coli, CE5556, 24/48 hours at 37° C., read-out: MIC
[13] = Staphylococcus epidermidis, CCM7221, 24/48 hours at 37° C., read-out: MIC
[14] = Pseudomonas aeruginosa, 24/48 hours at 37° C., read-out: MIC
[15] = Staphylococcus aureus, 24/48 hours at 37° C., read-out: MIC
[16] = Enterococcus faecium, 419/ANA, 24/48 hours at 37° C., read-out: MIC
[17] = Escherichia coli, 24/48 hours at 37° C., read-out: MIC
[18] = Staphylococcus aureus, 4591, 24/48 hours at 37° C., read-out: MIC
[19] = Enterococcus faecalis, 24/48 hours at 37° C., read-out: MIC
[20] = Enterobacter kobei, 3683, 24/48 hours at 37° C., read-out: MIC

Row | Molecule | MIC ([1]; Candida albicans) [µg/mL] | MIC (Escherichia coli CE5556; Escherichia coli, CE5556) [µg/mL] | MIC [2, 9] [µg/mL] | MIC (Pseudomonas aeruginosa R; Pseudomonas aeruginosa) [µg/mL] | MIC ([3]; Pseudomonas aeruginosa) [µg/mL] | MIC ([4]; Staphylococcus aureus) [µg/mL] | MIC ([5]; Enterococcus faecium, 419/ANA) [µg/mL] | MIC [6, 10] [µg/mL] | MIC ([7]; Staphylococcus aureus, 4591) [µg/mL] | MIC ([8]; Enterococcus faecalis) [µg/mL] | MIC (Enterobacter kobei 3683; Enterobacter kobei, 3683) [µg/mL] | also measured
1 | CCCCCCOP(=O)(CCN(CCCN)CCCN)OCCCCCCCCCCOP(=O)(CCN(CCCN)CCCN)OCCCCCC.Cl.Cl.Cl.Cl (centres unmarked) [Example 43, Decane-1,10-diyl dihexyl bis((2-(bis(3-aminopropyl)amino)-ethyl)phosphonate) tetrahydrochloride] | 1 | 1 | 0.5 | 1 | 1 | 0.5 | 1 | 0.5 | 0.5 | 0.5 | 1 | 
2 | CCCCCOP(=O)(CCN(CCCN)CCCN)OCCCCCCCCCCCCCCOP(=O)(CCN(CCCN)CCCN)OCCCCC.Cl.Cl.Cl.Cl.Cl.Cl (centres unmarked) [Example 53, Tetradecane-1,14-diyl dipentyl bis((2-(bis(3-aminopropyl)amino)ethyl)-phosphonate) hexahydrochloride] | 2 | 1 | 0.5 | 4 | 2 | 0.5 | 2 | 1 | 1 | 1 | 2 | 
3 | CCCCCCCCCCCCCCOP(=O)(CCN(CCCNC(=N)N)CCCNC(=N)N)OC[C@H]1O[C@@H](n2ccc(=O)[nH]c2=O)C(O)C1O (some centres unmarked) [DR7030, reference compound] |  |  |  |  |  |  |  |  |  |  |  | MIC ([4]; Staphylococcus aureus, 0% BSA, read-out: MIC): 2 µg/mL (≈ 2.68 µM); MIC ([4]; Staphylococcus aureus, 4% BSA, read-out: MIC): > 200 µg/mL; MIC ([6]; Escherichia coli, 0% BSA, read-out: MIC): 2 µg/mL (≈ 2.68 µM); MIC ([6]; Escherichia coli, 4% BSA, read-out: MIC): > 200 µg/mL
4 | Hexan-1,8-diyl dioctyl bis((2-(bis(3-aminopropyl)amino)ethyl)phosphonate) hexahydrochloride [Example 36] |  |  |  |  |  |  |  |  |  |  |  | MIC ([1]; 24/48 hours at 37° C.): 128 µg/mL; MIC (Escherichia coli CE5556; 24/48 hours at 37° C.): >128 µg/mL; MIC ([2]; 24/48 hours at 37° C.): 4 µg/mL; MIC (Pseudomonas aeruginosa R; 24/48 hours at 37° C.): 128 µg/mL; MIC ([3]; 24/48 hours at 37° C.): >128 µg/mL; MIC ([4]; 24/48 hours at 37° C.): 16 µg/mL; MIC ([5]; 24/48 hours at 37° C.): >128 µg/mL; MIC ([6]; 24/48 hours at 37° C.): 128 µg/mL; MIC ([7]; 24/48 hours at 37° C.): 8 µg/mL; MIC ([8]; 24/48 hours at 37° C.): >128 µg/mL; MIC (Enterobacter kobei 3683; 24/48 hours at 37° C.): >128 µg/mL
5 | CCCCCCCCCCOP(=O)(CCN(CCCN)CCCN)OCCCCCCCCCCOP(=O)(CCN(CCCN)CCCN)OCCCCCCCCCC (centres unmarked) [Example 45, Decan-1,10-diyl didecyl bis((2-(bis(3-aminopropyl)amino)ethyl)-phosphonate) tetrahydrochloride] | 64 | > 128 | 1 | 16 | 32 | 4 | 128 |  | 4 | 32 | > 128 | MIC ([6]; Escherichia coli): > 128 µg/mL
6 | CCCCCOP(=O)(CCN(CCCN)CCCN)OCCCCCCCCCCOP(=O)(CCN(CCCN)CCCN)OCCCCC.Cl.Cl.Cl.Cl.Cl.Cl (centres unmarked) [Example 42, Decane-1,10-diyl dipentyl bis((2-(bis(3-aminopropyl)amino)-ethyl)phosphonate) hexahydrochloride] | 16 | 8 | 0.5 | 8 | 4 | 0.5 | 32 | 2 | 1 | 4 | 64 | 
7 | CCCCOP(=O)(CCN(CCCN)CCCN)OCCCCCCCCCCCCCCOP(=O)(CCN(CCCN)CCCN)OCCCC.Cl.Cl.Cl.Cl.Cl.Cl (centres unmarked) [Example 52, Dibutyl tetradecane-1,14-diyl bis((2-(bis(3-aminopropyl)amino)ethyl)phosphonate) hexahydrochloride] | 4 | 2 | 0.5 | 2 | 4 | 1 | 2 | 2 | 1 | 1 | 8 | 
8 | C=CP(=O)(OCCCCCCCCCCCCOP(=O)(C=C)OCC(C)C)OCC(C)C (centres unmarked) [Example 34, Diisobutyl dodecane-1,12-diyl bis(vinylphosphonate)] |  |  |  |  |  |  |  |  |  |  |  | MIC [1, 11]: 128 µg/mL (≈ 259 µM); MIC (Escherichia coli CE5556; [12]): 128 µg/mL (≈ 259 µM); MIC [2, 13]: 4 µg/mL (≈ 8.09 µM); MIC (Pseudomonas aeruginosa R; [14]): > 128 µg/mL; MIC [3, 14]: > 128 µg/mL; MIC [4, 15]: 8 µg/mL (≈ 16.2 µM); MIC [5, 16]: > 128 µg/mL; MIC [6, 17]: 32 µg/mL (≈ 64.7 µM); MIC [7, 18]: 16 µg/mL (≈ 32.4 µM); MIC [8, 19]: 128 µg/mL (≈ 259 µM); MIC (Enterobacter kobei 3683; [20]): > 128 µg/mL
9 | CCCCOP(=O)(CCN(CCCN)CCCN)OCCCCCCCCCCOP(=O)(CCN(CCCN)CCCN)OCCCC.Cl.Cl.Cl.Cl.Cl.Cl (centres unmarked) [Example 41, Dibutyl decane-1,10-diyl bis((2-(bis(3-aminopropyl)amino)ethyl)phosphonate) hexahydrochloride] | 64 | 128 | 1 | 8 | 16 | 2 | 128 | 64 | 2 | 32 | > 128 | 
10 | CCCCOP(=O)(CCN(CCN)CCN)OCCCCCCCCCCOP(=O)(CCN(CCN)CCN)OCCCC.Cl.Cl.Cl.Cl.Cl.Cl (centres unmarked) [Example 56, Dibutyl decane-1,10-diyl bis((2-(bis(2-aminoethyl)amino)ethyl)phosphonate) hexahydrochloride] | 4 | 4 | 4 | 8 | 4 | 2 | 4 | 4 | 4 | 2 | 16 | 
11 | Hexan-1,8-diyl dihexyl bis((2-(bis(3-aminopropyl)amino)ethyl)phosphonate) hexahydrochloride [Example 35] |  |  |  |  |  |  |  |  |  |  |  | MIC ([1]; 24/48 hours at 37° C.): 16 µg/mL; MIC (Escherichia coli CE5556; 24/48 hours at 37° C.): 1 µg/mL; MIC ([2]; 24/48 hours at 37° C.): 0.5 µg/mL; MIC (Pseudomonas aeruginosa R; 24/48 hours at 37° C.): 2 µg/mL; MIC ([3]; 24/48 hours at 37° C.): 2 µg/mL; MIC ([4]; 24/48 hours at 37° C.): 0.5 µg/mL; MIC ([5]; 24/48 hours at 37° C.): 8 µg/mL; MIC ([6]; 24/48 hours at 37° C.): 0.5 µg/mL; MIC ([7]; 24/48 hours at 37° C.): 1 µg/mL; MIC ([8]; 24/48 hours at 37° C.): 1 µg/mL; MIC (Enterobacter kobei 3683; 24/48 hours at 37° C.): 2 µg/mL
12 | CCCCCOP(=O)(CCN(CCCN)CCCN)OCCCCCCCCOP(=O)(CCN(CCCN)CCCN)OCCCCC.Cl.Cl.Cl.Cl.Cl.Cl (centres unmarked) [Example 37, Octane-1,8-diyl dipentyl bis((2-(bis(3-aminopropyl)amino)-ethyl)phosphonate) hexahydrochloride] | 32 | 8 | 0.5 | 64 | 16 | 1 | > 128 | 2 | 2 | 16 | > 128 | MIC ([4]; 4% BSA): 1 µg/mL; MIC ([4]; 24/48 hours at 37° C.): 1 µg/mL; MIC ([6]; Escherichia coli, 0% BSA): 2 µg/mL; MIC ([6]; Escherichia coli, 4% BSA): 4 µg/mL
13 | C=CP(=O)(OCCCCCCCCCCOP(=O)(C=C)OCC(C)C)OCC(C)C (centres unmarked) [Example 39, Decane-1,10-diyl diisobutyl bis(vinylphosphonate)] |  |  |  |  |  |  |  |  |  |  |  | MIC [1, 11]: > 128 µg/mL; MIC (Escherichia coli CE5556; [12]): 128 µg/mL (≈ 274 µM); MIC [2, 13]: 8 µg/mL (≈ 17.1 µM); MIC (Pseudomonas aeruginosa R; [14]): 64 µg/mL (≈ 137 µM); MIC [3, 14]: 128 µg/mL (≈ 274 µM); MIC [4, 15]: 32 µg/mL (≈ 68.6 µM); MIC [5, 16]: 128 µg/mL (≈ 274 µM); MIC [6, 17]: 128 µg/mL (≈ 274 µM); MIC [7, 18]: 16 µg/mL (≈ 34.3 µM); MIC [8, 19]: 64 µg/mL (≈ 137 µM); MIC (Enterobacter kobei 3683; [20]): > 128 µg/mL
